Reference: patent publication US8314255B2, “Use of phthalimide and/or sulphonamide derivatives in the treatment of diseases which require reducing the TNF- α levels and an exogenous source of nitric oxide, phthalimide derivatives, sulphonamide derivatives, and a method for obtaining a sulphonamide derivative” (priority 2007, dated 2012)
Marks after values point to notes of the source that are not given here.

What was measured:
[1] = test system: abdominal writhing induced by acetic acid; test: Abdominal writhing assay induced by acetic acid; assay type: in vivo; conditions: oral, mice, acetic acid 0.1N i.p. after 1 hour, writhings counted during 20 minutes
Procedure: In order to evaluate the peripheral analgesic activity of the compounds, an abdominal writhing assay induced by acetic acid (Table 6) was carried out. In this assay, we could infer that compound ID has an important analgesic activity, inhibiting abdominal writhing by 66%. […] The analgesic activity may be related to the ability of these compounds to inhibit the cytokine TNFα, since it is known that this would be one of the mechanisms that explain the analgesia of molecules such as thalidomide.
The antinociceptive profile was evaluated through the abdominal writhing assay induced by acetic acid in mice. In this assay, Swiss mice from both genders were used, weighing from 21 to 28 grams, fasted for a time period of about 8 hours. The test substance was administered orally and had, as a carrier, 5% gum arabic. After 1 hour, the administration of acetic acid 0.1N (0.1 mL/10 g weight) was performed in the peritoneal cavity of the animals. Ten minutes after the injection of acetic acid, writhings were counted during 20 minutes.

[2] = test system: Salmonella typhimurium TA100; test: AMES test, mutagenic evaluation in Salmonella typhimurium TA100 strain with/without metabolic activation (S9); assay type: cell-based
Procedure: The procedure was firstly developed by (MARON, D. M. and AMES, B. N. Mut. Res. v. 113, pp. 173-215, 1983)
For this assay, Salmonella typhimurium TA100 and TA102 strains from the mutagenicity laboratory of the “Faculdade de Ciências Farmacêuticas—UNESP Araraquara” were used. Such strains have the following characteristics: (AMES, 1983)
The positive controls are mutagenic compounds specific for each strain and test condition, with 25 μL/plate of sodium azide (1.25 μg/plate) and 100 μL of mitomycin (0.5 μg/plate) being the controls for TA100 and TA102, respectively, in the absence of metabolic activation. For assays with metabolic activation, the positive control for TA100 is 50 μL 2-antramine (1.25 μg/plate) and for TA102 it is 50 μL 2-aminofluorene (1.25 μg/plate).
The preincubation method was used.
In laminar flow, Salmonella typhimurium (TA100 and TA 102) strains were inoculated individually with a platinum loop, in the respective nutrient broths and maintained at 37° C., under constant stirring (160 rpm) during 14 hours, in order to achieve a density of 1 to 2×10^9 bacteria/mL.
Different concentrations of the compounds were added into 100 μL of 0.2M phosphate buffer pH 7.4 (or 500 μL of the mixture S9 in metabolic activation assays) and incubated for 20-30 minutes at 37° C. Solutions containing the compounds had DMSO as the solvent. Thereafter, 2 mL of top agar supplemented with traces of histidine and biotin was added, homogenized and plated in glycosylated minimum medium. After solidification of the top agar, the plates were incubated for 48 hours at a 37° C. Then, the counting of the number of revertant colonies per plate was performed. All tested concentrations, positive and negative controls were run in triplicate.
After 48 hours, the revertant colonies were counted manually, and the protoCOL Colony Counter Version 3.15.630 (1998-2001) SYNBIOSIS LTD system was used for the positive control.
The final data obtained from the assay was analyzed using the statistical software Salanal (Salmonella Assay Analysis) version 1.0 from the Research Triangle Institute, RTP, North Carolina, USA. Such software allows the dose-response effect to be evaluated by means of analysis of variance (ANOVA-test F) computations between the measurement of the number of revertants at the different tested concentrations (doses) and the negative control, followed by a linear regression. The software model chosen for analyzing the data was Bernstein's (BERNSTEIN, L. et al. Mutat. Res. v. 97, p. 267-281, 1982). The slope of the straight line from the linear portion of the dose-response curve is also provided by this software and corresponds to the number of revertants induced per measurement unit of the analyzed sample.
From the results, the mutagenicity ratio (MR) was computed for each analyzed dose from each compound. MR is given by the following equation:
MR=average number of revertants per test plate (spontaneous+induced revertants) […] average number of revertants per plate of the negative control (spontaneous revertants)
The spontaneous growing means that the number of revertants which developed on the plate, regardless of being induced or not, wherein values higher or equal to 2 are considered as a positive response (VALENT, G. V. et al. Env. Toxicol. Water Quality. v. 8, p. 371-381, 1993).
The mutagenicity test with metabolic activation system was performed with a microsomal fraction S9 (S9 mix) prepared from a liver homogenizate from Sprague Dawley rats, previously treated with Aroclor 1254, acquired in the freeze-dried form.
The procedure for this assay is the same, however, instead of the buffer, 500 μL of the S9 mixture should be added.
The S9 mixture has a viability of 4 hours from preparation when put on ice. The plates are then incubated for 48 hours at 37° C. After the required time has elapsed, the counting of the revertant colonies was carried out. All tested concentrations, positive and negative controls were run in triplicate.

[3] = test system: leukocyte infiltration, peritonitis induced by thioglycolate; test: Peritonitis assay induced by 3% thioglycolate; assay type: in vivo; conditions: 300 μMol/Kg orally, mouse, 3% thioglycolate i.p., 4 h
Procedure: In a second assay, the number of total leukocytes (10^6/mL) was evaluated in order to evaluate the ability to inhibit their infiltration in the inflammatory process.
The mice were treated with the substances being analyzed or carrier and after 1 h of oral administration, they were simultaneously subjected to the peritonitis assay, by administering intraperitoneally 1 ml of a 3% thioglycolate solution. 4 h after the administration of thioglycolate, the peritoneal cavity was washed with 3 ml of a HANKS solution (Balanced salt solution, free of Ca^2+ and Mg^2+). Next, the peritoneal wash was analyzed and the total counting of white blood cells was made in a Newbauer's chamber under an optical microscope with a 40× objective.

## O=C1c2ccccc2C(=O)N1CO[N+](=O)[O-] [Compound IA, (1,3-dioxo-1,3-dihydro-2H-isoindol-2-yl)methyl nitrate]
[1]
  Average (abdominal writhings): 28.6
[2]; TA 100, +S9, 7.25 nmol/plate
  mutagenicity ratio (MR): 1.19
  number of revertants per plate: 154 ± 14.2 revertants/plate
[2]; TA 100, +S9, 14.5 nmol/plate
  mutagenicity ratio (MR): 1.19
  number of revertants per plate: 155 ± 5.9 revertants/plate
[2]; TA 100, +S9, 29 nmol/plate
  mutagenicity ratio (MR): 1.08
  number of revertants per plate: 140.3 ± 2 revertants/plate
[2]; TA 100, +S9, 56 nmol/plate
  mutagenicity ratio (MR): 0.97
  number of revertants per plate: 126.3 ± 8.1 revertants/plate
[2]; TA 100, +S9, 112 nmol/plate
  mutagenicity ratio (MR): 1.03
  number of revertants per plate: 133.3 ± 11 revertants/plate
[2]; TA 100, −S9, 7.25 nmol/plate
  mutagenicity ratio (MR): 1.03
  number of revertants per plate: 140.5 ± 17 revertants/plate
[2]; TA 100, −S9, 14.5 nmol/plate
  mutagenicity ratio (MR): 1.18
  number of revertants per plate: 161.7 ± 11 revertants/plate
[2]; TA 100, −S9, 29 nmol/plate
  mutagenicity ratio (MR): 0.9
  number of revertants per plate: 122.7 ± 3.06 revertants/plate
[2]; TA 100, −S9, 56 nmol/plate
  mutagenicity ratio (MR): 1.71
  number of revertants per plate: 234 ± 39.5 revertants/plate
[2]; TA 100, −S9, 112 nmol/plate
  mutagenicity ratio (MR): 2.45
  number of revertants per plate: 335 ± 15.7 revertants/plate
[3]
  Cell Number avg (×106), total leukocytes: 4.9 ×106
  Inhibition % (leukocyte infiltrate): 12.5%

## O=C1c2ccccc2C(=O)N1c1ccc(CCO[N+](=O)[O-])cc1 [Compound IE, 2-[4-(1,3-dioxo-1,3-dihydro-2H-isoindol-2-yl)phenyl]ethyl nitrate]
[2]; TA 100, +S9, 0.12 μmol/plate
  mutagenicity ratio (MR): 2.8
  number of revertants per plate: 363 ± 25.2 revertants/plate
[2]; TA 100, +S9, 0.25 μmol/plate
  mutagenicity ratio (MR): 3.7
  number of revertants per plate: 478.7 ± 4.22 revertants/plate
[2]; TA 100, +S9, 0.5 μmol/plate
  mutagenicity ratio (MR): 4.86
  number of revertants per plate: 628 ± 40.8 revertants/plate
[2]; TA 100, +S9, 1 μmol/plate
  mutagenicity ratio (MR): 5.72
  number of revertants per plate: 739 ± 25.4 revertants/plate
[2]; TA 100, +S9, 2 μmol/plate
  mutagenicity ratio (MR): 5.79
  number of revertants per plate: 750 ± 13.6 revertants/plate
[2]; TA 100, −S9, 0.12 μmol/plate
  mutagenicity ratio (MR): 1.04
  number of revertants per plate: 143.3 ± 5 revertants/plate
[2]; TA 100, −S9, 0.25 μmol/plate
  mutagenicity ratio (MR): 0.99
  number of revertants per plate: 135.3 ± 12 revertants/plate
[2]; TA 100, −S9, 0.5 μmol/plate
  mutagenicity ratio (MR): 0.99
  number of revertants per plate: 136.3 ± 13 revertants/plate
[2]; TA 100, −S9, 1 μmol/plate
  mutagenicity ratio (MR): 0.89
  number of revertants per plate: 121.5 ± 14 revertants/plate
[2]; TA 100, −S9, 2 μmol/plate
  mutagenicity ratio (MR): 1.30
  number of revertants per plate: 177 ± 23.6 revertants/plate
[3]
  Cell Number avg (×106), total leukocytes: 4.13 ×106
  Inhibition % (leukocyte infiltrate): 26.25%

## Nc1ccc(S(=O)(=O)NO)cc1 [Compound IIA, 4-amino-N-hydroxybenzenesulphonamide]
[1]
  Average (abdominal writhings): 30.4
[2]; TA 100, +S9, 0.98 μmol/plate
  mutagenicity ratio (MR): 1.24
  number of revertants per plate: 160 ± 12.4 revertants/plate
[2]; TA 100, +S9, 1.96 μmol/plate
  mutagenicity ratio (MR): 1.36
  number of revertants per plate: 175.7 ± 2 revertants/plate
[2]; TA 100, +S9, 3.92 μmol/plate
  mutagenicity ratio (MR): 1.43
  number of revertants per plate: 185.3 ± 15 revertants/plate
[2]; TA 100, +S9, 7.85 μmol/plate
  mutagenicity ratio (MR): 1.59
  number of revertants per plate: 206 ± 13.6 revertants/plate
[2]; TA 100, +S9, 15.7 μmol/plate
  mutagenicity ratio (MR): 2.74
  number of revertants per plate: 354 ± 6.5 revertants/plate
[2]; TA 100, −S9, 0.98 μmol/plate
  mutagenicity ratio (MR): 0.99
  number of revertants per plate: 146.3 ± 5.1 revertants/plate
[2]; TA 100, −S9, 1.96 μmol/plate
  mutagenicity ratio (MR): 1.23
  number of revertants per plate: 180.5 ± 7.8 revertants/plate
[2]; TA 100, −S9, 3.92 μmol/plate
  mutagenicity ratio (MR): 1.22
  number of revertants per plate: 179 ± 11.3 revertants/plate
[2]; TA 100, −S9, 7.85 μmol/plate
  mutagenicity ratio (MR): 1.17
  number of revertants per plate: 172.7 ± 12.5 revertants/plate
[2]; TA 100, −S9, 15.7 μmol/plate
  mutagenicity ratio (MR): 1.19
  number of revertants per plate: 175 ± 2.8 revertants/plate
[2]; with metabolic activation
  concentration above which the number of revertants is reduced by cell toxicity: Above 15.7 μmol/plate
[3]
  Cell Number avg (×106), total leukocytes: 4.0 ×106
  Inhibition % (leukocyte infiltrate): 28.57%

## O=C1c2ccccc2C(=O)N1CCO[N+](=O)[O-] [IB, 2-(1,3-dioxo-1,3-dihydro-2H-isoindol-2-yl)ethyl nitrate]
[1]
  Average (abdominal writhings): 39.2
  Inhibition % (abdominal writhing): 23.22%
[2]; TA 100, +S9, 0.01 μmol/plate
  mutagenicity ratio (MR): 3.4
  number of revertants per plate: 354 ± 6.9 revertants/plate
[2]; TA 100, +S9, 0.021 μmol/plate
  mutagenicity ratio (MR): 3.22
  number of revertants per plate: 335 ± 10.8 revertants/plate
[2]; TA 100, +S9, 0.042 μmol/plate
  mutagenicity ratio (MR): 3.8
  number of revertants per plate: 397 ± 25.9 revertants/plate
[2]; TA 100, +S9, 0.085 μmol/plate
  mutagenicity ratio (MR): 3.8
  number of revertants per plate: 395 ± 40.2 revertants/plate
[2]; TA 100, +S9, 0.17 μmol/plate
  mutagenicity ratio (MR): 2.5
  number of revertants per plate: 261 ± 11 revertants/plate
[2]; TA 100, −S9, 0.01 μmol/plate
  mutagenicity ratio (MR): 1.49
  number of revertants per plate: 171 ± 48.9 revertants/plate
[2]; TA 100, −S9, 0.021 μmol/plate
  mutagenicity ratio (MR): 1.74
  number of revertants per plate: 200 ± 23.3 revertants/plate
[2]; TA 100, −S9, 0.042 μmol/plate
  mutagenicity ratio (MR): 1.94
  number of revertants per plate: 223 ± 45.04 revertants/plate
[2]; TA 100, −S9, 0.085 μmol/plate
  mutagenicity ratio (MR): 1.8
  number of revertants per plate: 206 ± 30.2 revertants/plate
[2]; TA 100, −S9, 0.17 μmol/plate
  mutagenicity ratio (MR): 1.43
  number of revertants per plate: 165 ± 11.1 revertants/plate
[3]
  Cell Number avg (×106), total leukocytes: 2.73 ×106
  Inhibition % (leukocyte infiltrate): 51.25* %
